Read-outs that look alike come from different tables or passages of the source.

Holding throughout (type): biochemical
One test has as its target T1, SIRT1 (Homo sapiens, UniProt Q96EB6).
T1 construct: For assay experiments, strep-tagged human SIRT1134−747 and SIRT256-356 were expressed and purified as previously; Strep-tag; made in house; host or cells: E. coli BL21 Star (DE3)
T1 sequence (Q96EB6 134-747 limits assumed): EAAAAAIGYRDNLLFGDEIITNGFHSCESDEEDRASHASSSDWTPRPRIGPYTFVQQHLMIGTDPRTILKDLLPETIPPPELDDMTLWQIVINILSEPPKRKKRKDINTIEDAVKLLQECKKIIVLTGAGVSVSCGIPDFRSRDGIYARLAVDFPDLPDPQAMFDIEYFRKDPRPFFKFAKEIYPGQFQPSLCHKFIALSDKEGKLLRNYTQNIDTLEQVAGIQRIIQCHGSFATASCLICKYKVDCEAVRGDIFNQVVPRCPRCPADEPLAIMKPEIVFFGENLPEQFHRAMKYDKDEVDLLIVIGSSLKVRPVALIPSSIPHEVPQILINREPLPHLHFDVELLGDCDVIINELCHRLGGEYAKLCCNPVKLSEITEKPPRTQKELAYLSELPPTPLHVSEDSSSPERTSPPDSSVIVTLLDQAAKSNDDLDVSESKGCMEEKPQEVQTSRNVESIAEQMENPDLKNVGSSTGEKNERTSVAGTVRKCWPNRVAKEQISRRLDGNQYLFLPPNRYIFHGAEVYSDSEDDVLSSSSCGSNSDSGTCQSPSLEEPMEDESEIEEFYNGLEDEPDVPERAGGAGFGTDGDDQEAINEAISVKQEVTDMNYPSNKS
Put plainly: Fluorescence-based deacetylation assay (ZMAL-assay), SIRT1. The settings on record: 37 °C, assay limit 0.10 µM. The protocol: (§1) Determination of IC50 values (SIRT1, SIRT2, SIRT3) via fluorescence-based deacetylation assay […]
(§2) The fluorescence-based deacetylation assay was conducted in a black 384-well microplate (OptiPlate-384 F, PerkinElmer) with a total volume of 30 µL per well and a final DMSO concentration of 2% (v/v) according to a […]
(§3) concentration of 100 nM) in assay buffer (50 mM Tris, 137 mM NaCl, 2.7 mM KCl, 1m MgCl2, 0.01% Tween, 0.05 mg/mL BSA, 0.2 mM TCEP, pH 8.0), 5 µL of substrate (ZMAL, final concentration of 10.5 µM), 5 µL of NAD+ (final concentration of 500 µM) and 10 µL of inhibitor solution (final concentration of 30 µM – 0.014 µM, serial 1:3 dilutions) was incubated at 37 °C and 300 rpm for 4 h. A solution of trypsin (final concentration of 0.5 mg/mL) and nicotinamide (final concentration of 4 mM) was added and incubated at 37 °C and 300 rpm for 30 min to stop the reaction. Samples with 2% (v/v) DMSO instead of inhibitor were prepared as a positive control, and samples with 2% (v/v) DMSO instead of SIRT enzyme were prepared as a negative control. Fluorescence intensity was measured with a microplate reader (λEx = 380-10 nm, λEm = 460 nm, BMG POLARstar Optima, BMG Labtech, Germany). IC50 values were then determined using a nonlinear regression fit with Origin Pro 2019 software. All experiments were performed at least in duplicates. […]

A further test addresses T2, SIRT3 (Homo sapiens, UniProt Q9NTG7).
T2 construct: Human SIRT3118-395 was expressed and purified as previously described.[5]; made in house
T2 sequence (Q9NTG7 118-395 limits assumed): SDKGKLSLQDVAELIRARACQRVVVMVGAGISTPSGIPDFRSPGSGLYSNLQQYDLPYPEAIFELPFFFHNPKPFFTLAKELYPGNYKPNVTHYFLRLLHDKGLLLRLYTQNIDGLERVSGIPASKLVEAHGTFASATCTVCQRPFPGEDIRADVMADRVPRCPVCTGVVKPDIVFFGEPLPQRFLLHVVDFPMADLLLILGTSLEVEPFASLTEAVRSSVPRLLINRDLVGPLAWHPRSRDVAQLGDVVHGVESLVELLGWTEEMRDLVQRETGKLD
The test is described as follows: Fluorescence-based deacetylation assay (ZMAL-assay), SIRT3. Conditions: 37 °C, assay limit 0.10 µM. The protocol: as §1, §2, §3

The target of the next test is T3, SIRT2 (Homo sapiens, UniProt Q8IXJ6).
T3 construct: For assay experiments, strep-tagged human SIRT1134−747 and SIRT256-356 were expressed and purified as previously; Strep-tag; made in house; host or cells: E. coli BL21 Star (DE3)
T3 sequence (Q8IXJ6 56-356 limits assumed): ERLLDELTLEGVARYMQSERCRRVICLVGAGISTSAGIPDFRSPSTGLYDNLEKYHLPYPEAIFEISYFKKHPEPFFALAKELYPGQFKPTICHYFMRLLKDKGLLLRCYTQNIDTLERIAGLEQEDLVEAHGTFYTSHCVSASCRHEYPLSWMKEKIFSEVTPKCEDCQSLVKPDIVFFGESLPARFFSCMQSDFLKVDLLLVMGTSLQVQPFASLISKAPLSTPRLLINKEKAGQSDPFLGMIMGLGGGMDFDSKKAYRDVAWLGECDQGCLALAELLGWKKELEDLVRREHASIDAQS
The test is described as follows: Fluorescence-based demyristoylation assay (BSA-Assay). The protocol:
Determination of IC50 values (SIRT2) via fluorescence-based demyristoylation assay (BSA-Assay) The fluorescence-based demyristoylation assay was conducted in a continuous manner in a black 384-well microplate (OptiPlate-384 F, PerkinElmer) with a total volume of 40 µL per well and a final DMSO concentration of 5% (v/v), following a published procedure.[9] A mixture of 14 µL SIRT2 (final concentration of 1 nM) in assay buffer (20 mM Tris, 150 mM NaCl, […], pH 7.8) freshly supplemented with 2 mg/mL of BSA, 14 µL of substrate (F4, KM = 33 ± 5 nM[9], final concentration of 40 nM) and 2 µL of inhibitor solution (final concentration of 100 µM – 0.002 µM, serial 1:2 or 1:4 dilutions) was incubated at 25 °C and 350 rpm for 5 min. Samples with 5% (v/v) DMSO instead of inhibitor were measured as a positive control, and samples with assay buffer and 5% (v/v) DMSO instead of SIRT2 were measured as a negative control. The reaction was started with the addition of 10 µL NAD+ (final concentration of 500 µM) and the product formation was immediately monitored by the change of the fluorescence intensity at 25 °C for 20 min. For NAD+ preincubation experiments, instead of the substrate, 10 µL of NAD+ (final concentration of 500 µM) was added to the solution and incubated at 25 °C and 350 rpm for 15 min. The reaction was started with the addition of 14 µL substrate (final concentration of 40 nM) and the product formation was immediately monitored by the change of the fluorescence intensity at 25 °C every 60 s for 20 min using a microplate reader (λEx = 485 nm, λEm = 530-10 nm, BMG POLARstar Optima, BMG Labtech, Germany).
The activity was normalized using the positive control as 100% and the negative control as 0%. The normalized activity (v/v0) was plotted as a function of the logarithm of the inhibitor concentration [I], and a nonlinear fit was performed according to the following equation to determine the IC50 value.[9] […]

Setting [1] is: BSA-Assay, 25 °C, read-out: SIRT2 (demyr.) IC50.

`Cc1cc(C)nc(SCC(=O)Nc2ncc(Cc3cccc(OCc4c[nH]nn4)c3)s2)n1` [Compound 7]: the “SIRT1 (deac.) IC50” value at SIRT1 is on record as “n.i”. For the same molecule, the “SIRT3 (deac.) IC50” value at SIRT3 is “n.i”. The IC50 (commonly the concentration that gives 50% inhibition) at SIRT2 (setting [1]) is over 10000 nM.
Turning to `COCCn1cc(COc2cccc(Cc3cnc(NC(=O)CSc4nc(C)cc(C)n4)s3)c2)nn1` [Compound 1, reference compound], the “SIRT1 (deac.) IC50” value at SIRT1 is listed as “n.i”. Further, the “SIRT3 (deac.) IC50” value at SIRT3 is reported as “n.i”. In addition, the 50% inhibitory concentration (IC50) at SIRT2 (setting [1]) worked out at 660 ± 100 nM.
Consider `CCCCCCCCCCCCc1cn(CCCC[C@H](NC(=O)[C@H](CCCCN)NC(=O)[C@@H]2CCCN2C(=O)[C@H](CC(C)C)NC(=O)[C@H](C)NC(=O)[C@H](CCC(=O)O)NC(C)=O)C(=O)N[C@H](C(=O)NCC(=O)NCC(N)=O)[C@@H](C)O)nn1` [Compound 6], for which the IC50 is under 100 nM at SIRT1 (read-out: SIRT1 (deac.) IC50); 130 ± 10 nM at SIRT3 (read-out: SIRT3 (deac.) IC50); 3.6 ± 0.6 nM on SIRT2 (15 min NAD+ preincubation, read-out: IC50, SIRT2 demyristoylation after NAD+ preincubation); 30 ± 10 nM on SIRT2 (setting [1]); 28 ± 6 nM on SIRT2 (fatty-acylated substrate, without NAD+ preincubation, read-out: IC50, SIRT2 demyristoylation).
